Reference: PubChem BioAssay AID2842 (Southern Research Institute, 2010)
Values after ≈ are worked out from the molar mass of the structure shown.

tested on: M. tuberculosis H37Rv growth inhibition; test: Mycobacterium tuberculosis H37Rv growth inhibition, putative kinase inhibitor library, confirmatory dose response (AID 2842);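 note: bacteria incubated one week before Alamar blue readout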

Q: With `CC(=O)N1CCc2c(sc(NC(=O)c3cccc(C)c3)c2C(N)=O)C1` as the molecule, how does the IC90 read?
A: 17.1 µg/mL (≈ 47.8 µM)

Q: With `COc1cc2ccccc2cc1C(=O)Nc1nnc(-c2ccc(F)cc2)o1` as the molecule, how does the IC90 read?
A: 5.59 µg/mL (≈ 15.4 µM)

Q: With `O=C(Nc1nc(-c2cccs2)c(C(=O)C(F)(F)F)s1)c1cc(-c2ccccc2)nc2ccccc12` as the molecule, how does the IC90 read?
A: 24.4 µg/mL (≈ 47.9 µM)

Q: How did the IC90 turn out when `COc1ccc(OCc2nc(C#N)c(NCc3ccc(C)cc3)o2)cc1` was run?
A: 12.1 µg/mL (≈ 34.7 µM)

Q: `Cc1nc2c(ccc3nc(NC(=O)c4ccco4)sc32)s1` was tested. Which IC90 did it give?
A: 35 µg/mL (≈ 111 µM)

Q: How did the IC90 turn out when `O=C(Nc1cccc(-c2ccc3nnc(-c4cccnc4)n3n2)c1)c1ccc(F)cc1F` was run?
A: 27.6 µg/mL (≈ 64.5 µM)

Q: For `CCOc1ccc(C(=O)N2CC(=O)Nc3ccc(Br)cc3C2c2ccccc2)cc1` (stereo unspecified), which IC90 is on record?
A: 25.3 µg/mL (≈ 54.3 µM)

Q: `CCN1C(=O)CCc2cc(NS(=O)(=O)c3ccc(OCC(C)C)cc3)ccc21` was tested. Which IC90 did it give?
A: 18.3 µg/mL (≈ 45.5 µM)

Q: Which IC90 does the source give for `CCOc1ccc(-c2nnc3c4cc5c(cc4n(Cc4ccccc4OC)cc2-3)OCO5)cc1` here?
A: 9.22 µg/mL (≈ 20.3 µM)

Q: How did the IC90 turn out when `CCOc1cc(-c2nnc(NC(=O)C3=COCCO3)o2)cc(OCC)c1OCC` was run?
A: 7 µg/mL (≈ 17.3 µM)

Q: With `Cc1ccc(C(=O)c2cn(Cc3ccc(F)cc3)c3ccc(F)cc3c2=O)cc1` as the molecule, how does the IC90 read?
A: 12.5 µg/mL (≈ 32.2 µM)

Q: With `Cc1ccc(C)c(-c2nnc(NC(=O)c3ccc([N+](=O)[O-])s3)o2)c1` as the molecule, how does the IC90 read?
A: 3.09 µg/mL (≈ 8.97 µM)

Q: How did the IC90 turn out when `O=C(Nc1nnc(-c2ccc3c(c2)CCCC3)o1)c1ccccc1Br` was run?
A: < 0.2 µg/mL

Q: `C/C(=N\Nc1nc(=O)[nH]nc1C)c1ccccc1O` was tested. Which IC90 did it give?
A: < 0.2 µg/mL

Q: Which IC90 does the source give for `Cc1cccc2sc(NNC(=O)c3cccc(F)c3)nc12` here?
A: 9.09 µg/mL (≈ 30.2 µM)

Q: How did the IC90 turn out when `O=C(Nc1nnc(-c2ccc(Br)cc2)o1)C1COc2ccccc2O1` (stereo unspecified) was run?
A: 7.27 µg/mL (≈ 18.1 µM)

Q: For `Cc1ccc(C)c(-c2nnc(NC(=O)Cc3ccccc3)o2)c1`, which IC90 is on record?
A: 18.2 µg/mL (≈ 59.4 µM)

Q: How did the IC90 turn out when `Cc1cc(Cl)ccc1N/C=C(\C#N)c1nc2ccccc2[nH]1` was run?
A: 23.9 µg/mL (≈ 77.4 µM)

Q: For `Nc1ncnc(Sc2nc3ccccc3[nH]2)c1[N+](=O)[O-]`, which IC90 is on record?
A: 17.1 µg/mL (≈ 59.2 µM)

Q: How did the IC90 turn out when `CC(C)CCn1c(NCCc2ccccc2)nc2c1c(=O)n(C)c(=O)n2C` was run?
A: 11 µg/mL (≈ 29.9 µM)

Q: How did the IC90 turn out when `O=C(CCN1C(=O)c2ccccc2S1(=O)=O)Nc1ccc(Br)cc1` was run?
A: 17.5 µg/mL (≈ 42.9 µM)

Q: Which IC90 does the source give for `Cc1cccc(Cn2c(N3CCN(Cc4ccc(Cl)cc4)CC3)nc3c2c(=O)[nH]c(=O)n3C)c1` here?
A: 3.15 µg/mL (≈ 6.58 µM)

Q: Which IC90 does the source give for `C/C(=N\NC(=O)c1cc(-c2ccc(Cl)s2)[nH]n1)c1ccco1` here?
A: 6.9 µg/mL (≈ 20.6 µM)

Q: How did the IC90 turn out when `COc1ccc2nc(N(CCCn3ccnc3)C(=O)Cc3ccc(F)cc3)sc2c1` was run?
A: 5.64 µg/mL (≈ 13.3 µM)

Q: For `O=C(/C=C/c1ccccc1)Nc1nc2c(s1)COc1ccccc1-2`, which IC90 is on record?
A: 6.8 µg/mL (≈ 20.3 µM)

Q: Which IC90 does the source give for `CC(C)(C)C(=O)Nc1nnc(-c2cc(Cl)ccc2Cl)o1` here?
A: < 0.2 µg/mL

Q: For `COc1cccc(-c2nnc(NC(=O)c3ccc(Cl)s3)o2)c1`, which IC90 is on record?
A: < 0.2 µg/mL

Q: Which IC90 does the source give for `O=C(c1ccc(F)cc1)N1N=C(c2c(-c3ccccc3)c3cc(Br)ccc3[nH]c2=O)CC1c1ccco1` (stereo unspecified) here?
A: 13.1 µg/mL (≈ 23.5 µM)

Q: Which IC90 does the source give for `COc1cccc2sc(Nc3nc4c(s3)C(=O)CC(C)(C)C4)nc12` here?
A: 7.52 µg/mL (≈ 20.9 µM)

Q: For `CC1CCN(S(=O)(=O)c2ccc(C(=O)Nc3nnc(-c4cc(Cl)ccc4Cl)o3)cc2)CC1`, which IC90 is on record?
A: 35.4 µg/mL (≈ 71.5 µM)

Q: Which IC90 does the source give for `CSc1cccc(-c2nnc(NC(=O)c3ccc([N+](=O)[O-])s3)o2)c1` here?
A: 1.58 µg/mL (≈ 4.36 µM)

Q: How did the IC90 turn out when `Cc1ccc(C)c(C(=O)Nc2nnc(-c3ccc(C)c(C)c3)o2)c1` was run?
A: 2.66 µg/mL (≈ 8.28 µM)

Q: Which IC90 does the source give for `O=C(CSc1nc(-c2cccc(F)c2)[nH]c1-c1ccccc1)Nc1ccc2c(c1)OCO2` here?
A: 5.1 µg/mL (≈ 11.4 µM)

Q: With `CC(C)(C)c1ccc(-n2c(=O)[nH]c3c(C(N)=O)nc(CCc4ccccc4)nc32)cc1` as the molecule, how does the IC90 read?
A: 2.36 µg/mL (≈ 5.68 µM)

Q: How did the IC90 turn out when `Cc1ccc(-c2nnc(NC(=O)c3ccc(S(=O)(=O)N(C)C)cc3)o2)c(C)c1` was run?
A: 41.1 µg/mL (≈ 103 µM)

Q: With `O=C(c1ccco1)N(CCCn1ccnc1)c1nc2ccc(Cl)cc2s1` as the molecule, how does the IC90 read?
A: 0.89 µg/mL (≈ 2.3 µM)

Q: How did the IC90 turn out when `O=C(Nc1nnc(-c2ccco2)o1)c1ccc(Oc2ccccc2)cc1` was run?
A: < 0.2 µg/mL

Q: `CCOC(=O)N1CCN(c2ncnc3c2cnn3-c2ccc(C)c(Cl)c2)CC1` was tested. Which IC90 did it give?
A: 12.2 µg/mL (≈ 30.5 µM)

Q: How did the IC90 turn out when `CC1CCCCN1S(=O)(=O)c1ccc(C(=O)Nc2nnc(-c3ccc(Br)cc3)o2)cc1` (stereo unspecified) was run?
A: 17.3 µg/mL (≈ 34.2 µM)

Q: Which IC90 does the source give for `CCC(=O)Nc1nnc(-c2ccc(OC)cc2)o1` here?
A: 4.39 µg/mL (≈ 17.8 µM)

Q: `Cc1ccc(NC(=O)CC2C(=O)Nc3ccccc3N2C(=O)c2ccc(Br)cc2)cc1C` (stereo unspecified) was tested. Which IC90 did it give?
A: 2.24 µg/mL (≈ 4.55 µM)

Q: How did the IC90 turn out when `Fc1cccc2sc(Nc3nc(-c4cccs4)cs3)nc12` was run?
A: 25.4 µg/mL (≈ 76 µM)

Q: Which IC90 does the source give for `COC(=O)c1c(NC(=O)c2ccccc2Cl)sc2c1CC(C)(C)NC2(C)C` here?
A: 44.8 µg/mL (≈ 110 µM)

Q: With `CCOC(=O)N1CCc2c(sc(NC(C)=O)c2C(=O)OC)C1` as the molecule, how does the IC90 read?
A: 14 µg/mL (≈ 43 µM)

Q: `O=C(Nc1nnc(-c2ccc(Cl)cc2)o1)c1ccc(Br)cc1` was tested. Which IC90 did it give?
A: 3.26 µg/mL (≈ 8.61 µM)

Q: `OCc1nc2ccccc2n1CC(O)COc1ccc(Br)cc1` (stereo unspecified) was tested. Which IC90 did it give?
A: 10.2 µg/mL (≈ 27 µM)

Q: With `CCC(=O)Nc1nnc(-c2cc(Cl)ccc2Cl)o1` as the molecule, how does the IC90 read?
A: 30.1 µg/mL (≈ 105 µM)

Q: How did the IC90 turn out when `Cc1cc(C)c2nc(NNC(=O)c3cc4ccccc4oc3=O)sc2c1` was run?
A: 2.16 µg/mL (≈ 5.91 µM)

Q: Which IC90 does the source give for `CC1(C)Cc2c(sc(NC(=O)c3ccc(Cc4ccccc4)cc3)c2C(N)=O)C(C)(C)N1` here?
A: 10.4 µg/mL (≈ 23.3 µM)

Q: `Cc1ccc(C(=O)Nc2nnc(-c3ccncc3)o2)cc1C` was tested. Which IC90 did it give?
A: 26.8 µg/mL (≈ 91 µM)

Q: With `O=C(Nc1nnc(-c2cc(Cl)ccc2Cl)o1)c1ccc(S(=O)(=O)N2CCOCC2)cc1` as the molecule, how does the IC90 read?
A: 3.86 µg/mL (≈ 7.99 µM)

Q: With `O=C(Nc1nc2c(s1)CCc1ccccc1-2)c1cccc(Br)c1` as the molecule, how does the IC90 read?
A: 16.8 µg/mL (≈ 43.6 µM)

Q: For `COc1ccc(-c2nnc(NC(=O)C(C)C)o2)cc1`, which IC90 is on record?
A: 19.9 µg/mL (≈ 76.3 µM)

Q: Which IC90 does the source give for `O=C(c1cccs1)N(CCCn1ccnc1)c1nc2ccc(F)cc2s1` here?
A: 3.01 µg/mL (≈ 7.79 µM)

Q: How did the IC90 turn out when `CC(=O)Nc1nnc(-c2ccc(C)cc2C)o1` was run?
A: 23.9 µg/mL (≈ 103 µM)

Q: With `CCOc1cccc2sc(N(CCCn3ccnc3)C(=O)Cc3ccc(F)cc3)nc12` as the molecule, how does the IC90 read?
A: 4.84 µg/mL (≈ 11 µM)
